Measured values published in patent US10947202B2, “Sodium ion channel inhibitors and pharmaceutically acceptable salts and polymorphs thereof and uses thereof” (SHANGHAI HAIYAN PHARMACEUTICAL TECHNOLOGY CO., LTD., priority 2017, dated 2021).
Converted amounts (≈) assume the structure as drawn.

Key:
Assay type in all cases: physicochemical
[1] = Hygroscopicity experiment (DVS)
Text: The Dynamic Vapor Sorption (DVS) curve was acquired on the DVS Intrinsic of Surface Measurement Systems.
The DVS results for crystal forms A, D, E-3 and F are shown in FIG. 1E, FIG. 4F, FIG. 7E and FIG. 8E, respectively.

[2] = Stability experiment (storage of crystal forms, HPLC)
Protocol: High performance liquid chromatography spectrum was acquired on an Agilent 1260 HPLC, the specific instrument and test parameters are shown in the table 18 below.
Another set of samples were sealed at 5° C. and kept as a control at the same time. […]

Solubility experiment = conditions: for Solubility (mg/mL) 0.1M HCl / Solubility (mg/mL) H2O: room temperature; for Solubility (mg/mL) pH6.8: buffer pH 6.8, room temperature; for Solubility (mg/mL) H2O: water
Protocol: The solubility of crystal forms A, D, E-1, E-3, F and free base sample in buffer of 0.1M HCl, pH 4.5, pH 6.8 and water was tested at room temperature. In the test, the standard curves of free base sample and five crystal forms were plotted. Subsequently, 6 mg of API and five crystal form samples were weighed, respectively, and 2 ml of the solvent was added, the mixture was shaken at room temperature for 4 h, then ultrasonicated for 30 min, centrifuged, and the supernatant was taken out, filtered through a 0.45 μm filter and injected, and the solubility was measured, the results are shown in Table 28 (concentration is in mg/ml).

[3] = Crystal form stability on shaking in solvent or heating (XRPD); conditions: for crystal form after shaking of mixed forms: crystal forms III and IV mixed in ACE and MeOH, shaken at 50° C. for 1 day
Protocol: The reaction solution in the step 4 of Example 1 was poured into water, extracted with ethyl acetate, dried and concentrated, ethanol was added to dissolve and the solution was evaporated, 1N hydrochloric acid and ethyl acetate were added and stirred for 1-2 h, filtered, a solid product which was the crystal form III of free base was obtained, the X-ray powder diffraction pattern is shown in FIG. 11A (the 2θ angle has been marked), the DSC/TGA/DVS patterns are shown in FIGS. 11B, 11C and 11D. According to the DSC pattern, there is an inflection point around 100° C., and the sample has a melting absorption peak at 181.9° C. […] The sample was shaken in ACE and MeOH at 50° C. for 1 day, and the crystal form was unchanged.
The reaction solution in the step 4 of Example 1 was poured into water, extracted with ethyl acetate, dried and concentrated to retain a small amount of ethyl acetate, 1N hydrochloric acid was added and stirred for 1 h, filtered, the filter cake was washed with ethanol and then filtered to obtain a solid product which was the crystal form IV of free base was obtained. The X-ray powder diffraction pattern is shown in FIG. 12A (the […] has been marked), the DSC/TGA/DVS patterns are shown in FIGS. 12B, 12C and 12D. […] The sample was shaken in ACE at 50° C. for 1 day, and the crystal form was unchanged. […]

[4] = 5° C. 0 d, — = below detection limit
[5] = 40° C. 75% RH 14 d, — = below detection limit
[6] = 60° C. 7 d, — = below detection limit
[7] = 60° C. 21 d, — = below detection limit
[8] = buffer pH 4.5, room temperature

| SMILES | hygroscopicity (DVS curve) [1] | RRT (%) 0.86 ([2]; 5° C. 0 d) [%] | RRT (%) 1.00 ([2]; 5° C. 0 d) [%] | RRT (%) 1.05 ([2]; 5° C. 0 d) [%] | Total impurities (%) ([2]; 5° C. 0 d) | Content (%) ([2]; 40° C. 75% RH 14 d) | RRT (%) 1.00 ([2]; 40° C. 75% RH 14 d) [%] | RRT (%) 1.05 ([2]; 40° C. 75% RH 14 d) [%] | Total impurities (%) ([2]; 40° C. 75% RH 14 d) | Content (%) ([2]; 60° C. 7 d) | RRT (%) 0.86 ([2]; 60° C. 7 d) [%] | RRT (%) 1.00 ([2]; 60° C. 7 d) [%] | RRT (%) 1.05 ([2]; 60° C. 7 d) [%] | Total impurities (%) ([2]; 60° C. 7 d) | Content (%) ([2]; 60° C. 21 d) | RRT (%) 1.00 ([2]; 60° C. 21 d) [%] | RRT (%) 1.05 ([2]; 60° C. 21 d) [%] | Solubility (mg/mL) 0.1M HCl (Solubility experiment) [mg/mL] | Solubility (mg/mL) pH6.8 (Solubility experiment) [mg/mL] | Solubility (mg/mL) H2O (Solubility experiment) [mg/mL] | further results |
| --- | --- | --- | --- | --- | --- | --- | --- | --- | --- | --- | --- | --- | --- | --- | --- | --- | --- | --- | --- | --- | --- |
| Cc1cc(N2CCN(Cc3cc(F)c(C(=O)NS(=O)(=O)C4CC4)cc3Cl)CC2)ccc1Cl [crystal form A, 5-chloro-4-((4-(4-chloro-3-methylphenyl)piperazin-1-yl)methyl)-N-(cyclopropylsulfonyl)-2-fluorobenzamide] | slightly hygroscopic | 0.05 | 99.84 | 0.04 | 0.16 | 99.8 | 99.83 | 0.02 | 0.17 | 98.6 | 0.05 | 99.84 | 0.02 | 0.16 | 97.6 | 99.82 | 0.03 | 0.011 (≈ 22 µM) | 0.01 | 0.005 (≈ 9.99 µM) | moisture absorbed (DVS) ([1]; at 95% RH): 0.4%; RRT (%) 0.79 [2, 4]: 0.07%; RRT (%) 0.79 [2, 5]: 0.07%; RRT (%) 0.88 [2, 5]: 0.04%; RRT (%) 0.79 [2, 6]: 0.08%; Total impurities (%) ([2]; 60° C. 21 d): 0.18%; RRT (%) 0.79 [2, 7]: 0.07%; RRT (%) 0.86 [2, 7]: 0.02%; RRT (%) 0.88 [2, 7]: 0.05%; Solubility (mg/mL) pH4.5 (Solubility experiment; [8]): 0.001 mg/mL |
| Cc1cc(N2CCN(Cc3cc(F)c(C(=O)NS(=O)(=O)C4CC4)cc3Cl)CC2)ccc1Cl [crystal form D, 5-chloro-4-((4-(4-chloro-3-methylphenyl)piperazin-1-yl)methyl)-N-(cyclopropylsulfonyl)-2-fluorobenzamide] | almost no hygroscopicity | 0.03 | 99.90 | 0.03 | 0.11 | 100.2 | 99.90 | 0.03 | 0.09 | 98.9 | 0.03 | 99.90 | 0.03 | 0.11 | 99.1 | 99.91 | 0.03 | 0.018 (≈ 36 µM) | 0.016 | 0.005 (≈ 9.99 µM) | moisture absorbed (DVS) ([1]; at 95% RH): 0.07%; RRT (%) 0.79 [2, 4]: 0.04%; RRT (%) 0.79 [2, 5]: 0.04%; RRT (%) 0.88 [2, 5]: 0.02%; RRT (%) 0.79 [2, 6]: 0.04%; Total impurities (%) ([2]; 60° C. 21 d): 0.09%; RRT (%) 0.79 [2, 7]: 0.04%; RRT (%) 0.88 [2, 7]: 0.02%; Solubility (mg/mL) pH4.5 (Solubility experiment; [8]): 0.002 mg/mL |
| Cc1cc(N2CCN(Cc3cc(F)c(C(=O)NS(=O)(=O)C4CC4)cc3Cl)CC2)ccc1Cl [crystal form E-1, 5-chloro-4-((4-(4-chloro-3-methylphenyl)piperazin-1-yl)methyl)-N-(cyclopropylsulfonyl)-2-fluorobenzamide] | – | – | – | – | – | – | – | – | – | – | – | – | – | – | – | – | – | 0.019 (≈ 38 µM) | 0.035 | >2.669 | Solubility (mg/mL) pH4.5 (Solubility experiment; [8]): 0.002 mg/mL |
| Cc1cc(N2CCN(Cc3cc(F)c(C(=O)NS(=O)(=O)C4CC4)cc3Cl)CC2)ccc1Cl [crystal form E-3, 5-chloro-4-((4-(4-chloro-3-methylphenyl)piperazin-1-yl)methyl)-N-(cyclopropylsulfonyl)-2-fluorobenzamide] | has hygroscopicity | 0.08 | 99.79 | 0.06 | 0.26 | 106.4 | 99.71 | 0.04 | 0.29 | 99.5 | 0.08 | 99.78 | 0.06 | 0.22 | 105.1 | 99.71 | 0.04 | 0.016 (≈ 32 µM) | 0.096 | >2.780 | moisture absorbed (DVS) ([1]; when RH is 85%): 2%; RRT (%) 0.54 [2, 4]: 0.13%; RRT (%) 0.54 [2, 5]: 0.09%; RRT (%) 0.86 [2, 5]: 0.07%; RRT (%) 0.54 [2, 6]: 0.09%; Total impurities (%) ([2]; 60° C. 21 d): 0.30%; RRT (%) 0.54 [2, 7]: 0.08%; RRT (%) 0.86 [2, 7]: 0.07%; solubility at 4 h (Solubility experiment; buffer pH 4.5, pH 4.5, aqueous buffer, thermodynamic from solid, buffer pH 4.5, room temperature, read-out: Solubility (mg/mL) pH4.5): 0.002 mg/mL (≈ 4 µM) |
| Cc1cc(N2CCN(Cc3cc(F)c(C(=O)NS(=O)(=O)C4CC4)cc3Cl)CC2)ccc1Cl [crystal form F, 5-chloro-4-((4-(4-chloro-3-methylphenyl)piperazin-1-yl)methyl)-N-(cyclopropylsulfonyl)-2-fluorobenzamide] | has hygroscopicity | 0.05 | 99.86 | 0.03 | 0.14 | 98.4 | 99.90 | 0.04 | 0.10 | 99.7 | 0.03 | 99.87 | 0.04 | 0.13 | 101.0 | 99.80 | 0.03 | 0.017 (≈ 34 µM) | 0.050 | >3.154 | moisture absorbed (DVS) ([1]; when RH is 85%): 4%; RRT (%) 0.79 [2, 4]: 0.06%; RRT (%) 0.79 [2, 5]: 0.04%; RRT (%) 0.79 [2, 6]: 0.06%; Total impurities (%) ([2]; 60° C. 21 d): 0.20%; RRT (%) 0.79 [2, 7]: 0.05%; RRT (%) 0.86 [2, 7]: 0.03%; RRT (%) 0.88 [2, 7]: 0.02%; Solubility (mg/mL) pH4.5 (Solubility experiment; [8]): 0.002 mg/mL |
| Cc1cc(N2CCN(Cc3cc(F)c(C(=O)NS(=O)(=O)C4CC4)cc3Cl)CC2)ccc1Cl [crystal form I, 5-chloro-4-((4-(4-chloro-3-methylphenyl)piperazin-1-yl)methyl)-N-(cyclopropylsulfonyl)-2-fluorobenzamide] | slightly hygroscopic | – | – | – | – | – | – | – | – | – | – | – | – | – | – | – | – | – | – | – | stability of the crystal form (assessment in words) [3]: good stability |
| Cc1cc(N2CCN(Cc3cc(F)c(C(=O)NS(=O)(=O)C4CC4)cc3Cl)CC2)ccc1Cl [crystal form II, 5-chloro-4-((4-(4-chloro-3-methylphenyl)piperazin-1-yl)methyl)-N-(cyclopropylsulfonyl)-2-fluorobenzamide] | hygroscopic | – | – | – | – | – | – | – | – | – | – | – | – | – | – | – | – | – | – | – | – |
| Cc1cc(N2CCN(Cc3cc(F)c(C(=O)NS(=O)(=O)C4CC4)cc3Cl)CC2)ccc1Cl [crystal form III, 5-chloro-4-((4-(4-chloro-3-methylphenyl)piperazin-1-yl)methyl)-N-(cyclopropylsulfonyl)-2-fluorobenzamide] | slightly hygroscopic | – | – | – | – | – | – | – | – | – | – | – | – | – | – | – | – | – | – | – | stability of the crystal form (assessment in words) [3]: metastable crystal form; crystal form after shaking of mixed forms [3]: converted into crystal form I; crystal form after shaking ([3]; shaken in ACE and MeOH at 50° C. for 1 day): unchanged |
| Cc1cc(N2CCN(Cc3cc(F)c(C(=O)NS(=O)(=O)C4CC4)cc3Cl)CC2)ccc1Cl [crystal form IV, 5-chloro-4-((4-(4-chloro-3-methylphenyl)piperazin-1-yl)methyl)-N-(cyclopropylsulfonyl)-2-fluorobenzamide] | slightly hygroscopic | – | – | – | – | – | – | – | – | – | – | – | – | – | – | – | – | – | – | – | stability of the crystal form (assessment in words) [3]: metastable crystal form; crystal form after shaking of mixed forms [3]: converted into crystal form I; crystal form after shaking ([3]; shaken in ACE at 50° C. for 1 day): unchanged |
| Cc1cc(N2CCN(Cc3cc(F)c(C(=O)NS(=O)(=O)C4CC4)cc3Cl)CC2)ccc1Cl [crystal form V, 5-chloro-4-((4-(4-chloro-3-methylphenyl)piperazin-1-yl)methyl)-N-(cyclopropylsulfonyl)-2-fluorobenzamide] | slightly hygroscopic | – | – | – | – | – | – | – | – | – | – | – | – | – | – | – | – | – | – | – | crystal form after heating ([3]; heated to 150° C.): converted into crystal form I |
